According to patent publication US9439941B2, “Nano cancer barrier device (NCBD) to immobilize and inhibit the division of metastic cancer stem cells” (The University of Hong Kong, priority 2009, dated 2016):
“Also recorded” adds a separate entry of the source.

Key:
[1] = system: hormone refractory prostate cancer (HRPC); conditions: HRPC patients, Docetaxel-based chemotherapy; cited from earlier work
[2] = pH of untreated SAP solution; format: physicochemical; conditions: before neutralization in culture medium
Method: (§1) Untreated SAP solution has a very low pH (about 3-4). We neutralized the SAP solution in culture medium before implanting cells in the material. Briefly, for both 1% and 3%, SAP was placed in a dry dish and then 500 μl of culture medium added at the edge of the dish. This was to ensure that the culture medium would not wash the SAP away. The self-assembly occurred as soon as the material made contact with the medium. The medium was changed once at 30 minutes, and then removed. The 400 cells were placed either in the assembled SAP or a control well. Culture medium was then added at the edge of the dish in both SAP cases, and topped up every 2 days to compensate for evaporation. On day 14, the cells were vigorously washed out of the SAP using culture medium. In the 1% case, group 1 (n=4), the cells and SAP were moved to a new well and contents were washed multiple times to separate them from the SAP. In the 3% case, group 2 (n=4), the wells were also vigorously washed to remove the cells from the SAP. However, in both the 1% and 3% SAP concentration, not all of the cells were liberated. The culture continued to grow for 28 days at which point the wells were fixed with 4% paraformaldahyde.

[3] = system: prostate cancer cells (DU145); experiment: spheroid (prostasphere) / colony formation of prostate cancer stem cells embedded in SAP, non-adherent plate; format: cell-based; conditions: for state of CSCs: 14 days after plating; for prostasphere detection: 14 days after plating in non-adherent plate
Method: The SAP solution was prepared by using RADA16-I dry powder (made in the Ellis-Behnke lab) and mixed in an Eppendorf tube. The solution contained 10 or 30 mg of RADA16-I powder in 1 ml of Milli-Q water (Millipore Corp., Billerica Mass.), mixed, then sonicated for 30 seconds and filtered; this produced 1% and 3% SAP, respectively.
Pre-mix medium for spheroid assay. Mix 50 ml SFM (DMEM-F12-high glucose with 0.25% methylcellulose) and add 1 ml b27 per 50 ml SFM (50× stock). The growth factors are: fibroblast growth factor-basic (FGF) (Sigma cat. no. F0291)—25 μg dissolved in 1.0 ml of 5 mM Tris (pH 7.6) and sterilized with a 0.22 μm pore size filter (make 20 μl aliquots (stored at −20° C.) and add 10 μl per 50 ml of SFM); Epidermal growth factor (EGF) (Sigma cat. no. E4127)—0.1 mg dissolved in 1.0 ml of phosphate-buffered saline containing 0.1% bovine serum albumin (Sigma cat. no. A7511) (make […] (stored at −20° C.) and add 10 μl per 50 ml of SFM); Insulin 10 mg/ml—add 20 μl per 50 ml.
To remove prostate cancer cells (DU145, ATCC, Rockville, Md.) from adherent culture, trypsin was used to liberate and then re-suspend 400 cells per 1 μl plated in each well (10). Before plating the cells, the plate was coated with polyhema (Sigma, St. Louis, Mo.).
as §1

CC(=O)O[C@@]12CO[C@@H]1C[C@H](O)[C@@]1(C)C(=O)[C@H](O)C3=C(C)[C@@H](OC(=O)[C@H](O)[C@@H](NC(=O)OC(C)(C)C)c4ccccc4)C[C@@](O)([C@@H](OC(=O)c4ccccc4)[C@H]21)C3(C)C [Docetaxel]
improvement of median survival time [1]: 3 months

n-RADARADARADARADA-c [SAP]
pH of untreated SAP solution [2]: 3-4
state of CSCs ([3]; 1% SAP): most of the CSCs remained single cells
prostasphere detection ([3]; 1% SAP): no prostaspheres could be detected
time remaining cells continued to be quiescent (no division, no colony formation) ([3]; 1% SAP, cells not liberated by day-14 washout): up to 28 days
state of cells at day 10 (FIG. 1G) ([3]; 1% SAP, day 10): still single cells
cell division and colony formation while cells are in the material ([3]; 1% SAP, group 1 (n=4)): remained quiescent; also recorded: delayed division and formation of colonies
colonies when cells completely surrounded by the material ([3]; 1% and 3% SAP): no colonies were seen
colonies when part of the cell was exposed ([3]; 1% and 3% SAP, some cases): a colony of reduced size was seen
time proliferation of cells was suspended ([3]; 1% and 3% SAP, experiment then stopped): 28 days
state of CSCs ([3]; 3% SAP): most of the CSCs remained single cells
prostasphere detection ([3]; 3% SAP): no prostaspheres could be detected
cell division or colony formation of cells that remained in the material ([3]; 3% SAP, at 28 days): no cell division or colony formation
state of cells at day 10 (FIG. 1H) ([3]; 3% SAP, day 10): still single cells
size of single cell remaining in SAP (FIG. 1O) ([3]; 3% SAP, day 28): still the same size as day 1
time CSCs remained quiescent ([3]; CSCs from prostate cancer cell lines embedded in SAP): more than 28 days
self-renewal of prostate CSC ([3]; SAP, viability and CSC property preserved): completely inhibit
time until colonization visible post-washout ([3]; cells washed out of 1% SAP): 10 days
viability and self-renewal of embedded cells after washout ([3]; cells washed out of 1% SAP and replated): viable and capable of self-renewal
time until prostaspheres visible after washout ([3]; cells washed out of 1% SAP at day 14, replated in non-adherent plate): 8 days
time until prostaspheres evident post-washout ([3]; cells washed out of 3% SAP at day 14): 8 days
division of cancer cells in vitro and subsequent colony formation ([3]; each group, cells placed in the SAP): stopped
